Results reported in ChEMBL document CHEMBL1201862, “PubChem BioAssay data set” (2004).
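A five-concentration, 48-hour dose response in 96-well plates underlies each endpoint, interpolated linearly between surrounding concentrations. Abbreviation: GI50, concentration required for 50% inhibition of growth.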 Calls of active or inactive are those of the source. Cut-off read from the data, not from the text of the source: active = GI50 up to about 1.1 µM and inactive = higher.

Assays:
Experiment in all cases: NCI tumour cell line growth inhibition, 48 h
OVCAR-4 = test system: OVCAR-4
CAKI-1 = test system: CAKI-1
HOP-92 = test system: HOP-92
HT-29 = test system: HT-29
NCI/ADR-RES = test system: NCI/ADR-RES
SK-MEL-5 = test system: SK-MEL-5
A498 = test system: A498
K562 = test system: K562
T47D = test system: T47D
DU-145 = test system: DU-145
CCRF-CEM = test system: CCRF-CEM
SK-OV-3 = test system: SK-OV-3
U-251 = test system: U-251
M14 = test system: M14
BT-549 = test system: BT-549
SNB-19 = test system: SNB-19
LOX IMVI = test system: LOX IMVI
SR = test system: SR
SW-620 = test system: SW-620

Structure (SMILES)	GI50 (OVCAR-4)	GI50 (CAKI-1)	GI50 (HOP-92)	GI50 (HT-29)	GI50 (NCI/ADR-RES)	GI50 (SK-MEL-5)	GI50 (A498)	GI50 (K562)	GI50 (T47D)	GI50 (DU-145)	GI50 (CCRF-CEM)	GI50 (SK-OV-3)	GI50 (U-251)	GI50 (M14)	GI50 (BT-549)	GI50 (SNB-19)	GI50 (LOX IMVI)	GI50 (SR)	GI50 (SW-620)
O=C1C(=C(C(=O)c2ccccc2)C(=O)c2ccccc2)OC(c2ccccc2)=C1C(=O)c1ccccc1	2.79 µM (inactive)	0.597 µM (active)	7.19 µM (inactive)	11.7 µM (inactive)	5.2 µM (inactive)	7.14 µM (inactive)	15.6 µM (inactive)	6.03 µM (inactive)	12 µM (inactive)	9.06 µM (inactive)	1.78 µM (inactive)	6.93 µM (inactive)	4.46 µM (inactive)	7.41 µM (inactive)	3.01 µM (inactive)	10.2 µM (inactive)	1.77 µM (inactive)	2.28 µM (inactive)	–
Cc1cc2c(cc1C)C(=O)C1(C2)Cc2cc3c(cc2C1=O)CCC3 (centres undefined)	> 100 µM (inactive)	> 100 µM (inactive)	> 100 µM (inactive)	> 100 µM (inactive)	> 100 µM (inactive)	> 100 µM (inactive)	> 100 µM (inactive)	> 100 µM (inactive)	> 100 µM (inactive)	> 100 µM (inactive)	> 100 µM (inactive)	> 100 µM (inactive)	> 100 µM (inactive)	44.1 µM (inactive)	> 100 µM (inactive)	> 100 µM (inactive)	–	> 100 µM (inactive)	> 100 µM (inactive)
COC(=O)C1(Cc2cccc(Cl)c2)CCCCCCN1C(=O)c1ccccc1 (centres undefined)	14.5 µM (inactive)	–	14.3 µM (inactive)	12.9 µM (inactive)	16.9 µM (inactive)	12.8 µM (inactive)	15.4 µM (inactive)	10.7 µM (inactive)	14.4 µM (inactive)	19.3 µM (inactive)	13.1 µM (inactive)	19.2 µM (inactive)	15.4 µM (inactive)	17.9 µM (inactive)	16.7 µM (inactive)	15.1 µM (inactive)	17.5 µM (inactive)	13.9 µM (inactive)	18.2 µM (inactive)
COC(=O)/C(C#N)=C(\Nc1ccccc1)N1CCOCC1	> 100 µM (inactive)	> 100 µM (inactive)	> 100 µM (inactive)	> 100 µM (inactive)	> 100 µM (inactive)	> 100 µM (inactive)	> 100 µM (inactive)	> 100 µM (inactive)	> 100 µM (inactive)	> 100 µM (inactive)	–	> 100 µM (inactive)	> 100 µM (inactive)	> 100 µM (inactive)	> 100 µM (inactive)	> 100 µM (inactive)	> 100 µM (inactive)	> 100 µM (inactive)	> 100 µM (inactive)
O=C1c2ccccc2C(=O)N1n1c(Cc2ccc([N+](=O)[O-])cc2)n[nH]c1=O	–	> 100 µM (inactive)	> 100 µM (inactive)	> 100 µM (inactive)	> 100 µM (inactive)	> 100 µM (inactive)	> 100 µM (inactive)	> 100 µM (inactive)	23.3 µM (inactive)	> 100 µM (inactive)	–	–	> 100 µM (inactive)	–	> 100 µM (inactive)	> 100 µM (inactive)	–	> 100 µM (inactive)	> 100 µM (inactive)
Cc1cn(CCOCCOC(=O)NC(CCCNC(=N)N)C(=O)O)c(=O)[nH]c1=O (centres undefined)	> 100 µM (inactive)	–	> 100 µM (inactive)	> 100 µM (inactive)	26.8 µM (inactive)	–	> 100 µM (inactive)	> 100 µM (inactive)	> 100 µM (inactive)	> 100 µM (inactive)	> 100 µM (inactive)	> 100 µM (inactive)	> 100 µM (inactive)	> 100 µM (inactive)	> 100 µM (inactive)	> 100 µM (inactive)	> 100 µM (inactive)	> 100 µM (inactive)	> 100 µM (inactive)
COc1ccc(C(C)c2cc3c(cc2O)OCO3)cc1 (centres undefined)	31.3 µM (inactive)	25.2 µM (inactive)	16.3 µM (inactive)	12.6 µM (inactive)	10.8 µM (inactive)	14.8 µM (inactive)	14.8 µM (inactive)	6 µM (inactive)	24.9 µM (inactive)	18.6 µM (inactive)	–	19.7 µM (inactive)	15.1 µM (inactive)	13.8 µM (inactive)	16.7 µM (inactive)	23.5 µM (inactive)	13.2 µM (inactive)	2.74 µM (inactive)	11.5 µM (inactive)
O/N=C1\C/C(=N\O)c2c(Br)sc(Br)c21	27.2 µM (inactive)	19.4 µM (inactive)	46 µM (inactive)	> 100 µM (inactive)	30.2 µM (inactive)	> 100 µM (inactive)	58.1 µM (inactive)	37.5 µM (inactive)	31.3 µM (inactive)	39.1 µM (inactive)	11.1 µM (inactive)	91.8 µM (inactive)	43.2 µM (inactive)	45.6 µM (inactive)	31.6 µM (inactive)	–	18.8 µM (inactive)	8.99 µM (inactive)	26.4 µM (inactive)
